# PubChem BioAssay (NCI)
#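 Values below derive from 48-hour exposures of cells grown in 96-well plates, with endpoints linearly interpolated between the two concentrations bracketing the appropriate inhibition level. TGI denotes the concentration required for complete inhibition of growth.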
# How the values were obtained:
# Experiment in all cases: NCI anticancer screen, dose series, 48 h
# [1] = tested on: 786-0 renal
# [2] = tested on: A549 NSCLC
# [3] = tested on: ACHN renal
# [4] = tested on: CCRF-CEM leukemia
# [5] = tested on: HCT-116 colon
# [6] = tested on: HT29 colon
# [7] = tested on: IGROV1 ovarian
# [8] = tested on: K-562 leukemia
# [9] = tested on: KM12 colon
# [10] = tested on: LOX IMVI melanoma
# [11] = tested on: M14 melanoma
# [12] = tested on: MOLT-4 leukemia
# [13] = tested on: NCI/ADR-RES ovarian
# [14] = tested on: OVCAR-3 ovarian
# [15] = tested on: OVCAR-8 ovarian
# [16] = tested on: PC-3 prostate
# [17] = tested on: SK-MEL-28 melanoma
# [18] = tested on: SR leukemia
# [19] = tested on: SW-620 colon
# [20] = tested on: U251 CNS
structure (smiles),measurement,setting,value
CCOC(=O)C(NCc1cccc(C(F)(F)F)c1)(NC(=O)CC)C(F)(F)F (stereo not drawn),TGI,[1],> 100 µM
same,TGI,[2],> 100 µM
same,TGI,[3],> 100 µM
same,TGI,[4],> 100 µM
same,TGI,[5],> 100 µM
same,TGI,[6],> 100 µM
same,TGI,[7],> 100 µM
same,TGI,[8],> 100 µM
same,TGI,[9],> 100 µM
same,TGI,[10],> 100 µM
same,TGI,[11],> 100 µM
same,TGI,[12],> 100 µM
same,TGI,[13],> 100 µM
same,TGI,[14],> 100 µM
same,TGI,[15],> 100 µM
same,TGI,[16],> 100 µM
same,TGI,[17],> 100 µM
same,TGI,[18],> 100 µM
same,TGI,[19],> 100 µM
same,TGI,[20],> 100 µM
Cc1ccc2[nH]c3c(c2c1)C1CCC(C(C)(C)C)CC1C1C(=O)N(c2ccc4c(c2)OCO4)C(=O)C31 (stereo not drawn),TGI,[1],3 µM
same,TGI,[2],6.38 µM
same,TGI,[3],3.63 µM
same,TGI,[4],3.81 µM
same,TGI,[5],6.36 µM
same,TGI,[6],16.2 µM
same,TGI,[7],6.68 µM
same,TGI,[8],9.62 µM
same,TGI,[9],19 µM
same,TGI,[10],6.25 µM
same,TGI,[11],17.2 µM
same,TGI,[12],4.25 µM
same,TGI,[13],10.2 µM
same,TGI,[14],3.08 µM
same,TGI,[15],4.28 µM
same,TGI,[16],9.17 µM
same,TGI,[17],17.9 µM
same,TGI,[18],3.73 µM
same,TGI,[19],7.95 µM
same,TGI,[20],4.77 µM
Cc1nc2c(o1)C(=O)c1ccccc1C2=Nc1ccc(N2CCOCC2)cc1,TGI,[1],61 µM
same,TGI,[2],17.8 µM
same,TGI,[3],18.9 µM
same,TGI,[4],> 36.8 µM
same,TGI,[5],13.6 µM
same,TGI,[6],60.9 µM
same,TGI,[7],30.4 µM
same,TGI,[8],11.6 µM
same,TGI,[9],66.8 µM
same,TGI,[10],8.62 µM
same,TGI,[11],3.27 µM
same,TGI,[12],31.5 µM
same,TGI,[13],> 29.6 µM
same,TGI,[14],5.12 µM
same,TGI,[15],> 27.7 µM
same,TGI,[16],7.37 µM
same,TGI,[17],7.69 µM
same,TGI,[18],13.3 µM
same,TGI,[19],26.5 µM
same,TGI,[20],14.4 µM
Cn1/c(=N\N=C(\CNCCO)[C@@H](O)[C@@H]2OC(c3ccccc3)OC[C@H]2O)sc2ccccc21 (stereo partly drawn),TGI,[1],34.3 µM
same,TGI,[2],31.1 µM
same,TGI,[3],44 µM
same,TGI,[4],47.4 µM
same,TGI,[5],29.5 µM
same,TGI,[6],38.6 µM
same,TGI,[7],35 µM
same,TGI,[8],33.3 µM
same,TGI,[9],33.5 µM
same,TGI,[10],31 µM
same,TGI,[11],26.5 µM
same,TGI,[12],33.6 µM
same,TGI,[13],> 100 µM
same,TGI,[14],32.7 µM
same,TGI,[15],37 µM
same,TGI,[16],35.5 µM
same,TGI,[17],33.2 µM
same,TGI,[18],41 µM
same,TGI,[19],37.5 µM
same,TGI,[20],31.8 µM
COc1ccc(/C(CC2OC(=O)c3ccccc32)=N\NC(=O)C[N+](C)(C)C)cc1 (stereo not drawn),TGI,[1],69.3 µM
same,TGI,[2],> 100 µM
same,TGI,[3],> 100 µM
same,TGI,[4],72 µM
same,TGI,[5],81.9 µM
same,TGI,[6],40.9 µM
same,TGI,[7],> 100 µM
same,TGI,[8],48.4 µM
same,TGI,[9],52 µM
same,TGI,[10],65.9 µM
same,TGI,[11],> 100 µM
same,TGI,[12],70.2 µM
same,TGI,[13],56.7 µM
same,TGI,[14],> 100 µM
same,TGI,[15],52.9 µM
same,TGI,[16],> 100 µM
same,TGI,[17],55.5 µM
same,TGI,[18],45.4 µM
same,TGI,[19],64.1 µM
same,TGI,[20],36.3 µM
COC(=O)/C=C(/OC)[C@H](C)[C@H](/C=C/c1csc(-c2csc(C(C)C)n2)n1)OC,TGI,[1],> 100 µM
same,TGI,[2],> 100 µM
same,TGI,[3],> 100 µM
same,TGI,[4],> 100 µM
same,TGI,[5],> 100 µM
same,TGI,[6],> 100 µM
same,TGI,[7],> 100 µM
same,TGI,[8],> 100 µM
same,TGI,[9],> 100 µM
same,TGI,[10],5.07 µM
same,TGI,[11],> 100 µM
same,TGI,[12],> 100 µM
same,TGI,[13],> 100 µM
same,TGI,[14],> 56.3 µM
same,TGI,[15],> 100 µM
same,TGI,[16],> 100 µM
same,TGI,[17],> 100 µM
same,TGI,[18],> 100 µM
same,TGI,[19],> 100 µM
same,TGI,[20],> 100 µM
Cc1ccc(C(=O)OCC(C)C)cc1N=NN(C)C,TGI,[1],> 100 µM
same,TGI,[2],> 100 µM
same,TGI,[3],> 100 µM
same,TGI,[4],> 100 µM
same,TGI,[5],> 100 µM
same,TGI,[6],> 100 µM
same,TGI,[7],> 100 µM
same,TGI,[8],> 100 µM
same,TGI,[9],> 100 µM
same,TGI,[10],> 85.2 µM
same,TGI,[11],> 100 µM
same,TGI,[12],> 100 µM
same,TGI,[13],> 100 µM
same,TGI,[14],90.6 µM
same,TGI,[15],> 100 µM
same,TGI,[16],> 100 µM
same,TGI,[17],> 100 µM
same,TGI,[18],> 100 µM
same,TGI,[19],> 100 µM
same,TGI,[20],> 100 µM
NS(=O)(=O)c1ccc(Nc2c3ccccc3nc3c(C(=O)NCCO)cccc23)cc1,TGI,[1],0.283 µM
same,TGI,[2],0.448 µM
same,TGI,[3],0.917 µM
same,TGI,[4],> 1 µM
same,TGI,[5],0.412 µM
same,TGI,[6],0.302 µM
same,TGI,[7],0.45 µM
same,TGI,[8],0.887 µM
same,TGI,[9],0.283 µM
same,TGI,[10],0.267 µM
same,TGI,[11],0.326 µM
same,TGI,[12],0.0604 µM
same,TGI,[13],> 1 µM
same,TGI,[14],0.318 µM
same,TGI,[15],0.902 µM
same,TGI,[16],0.432 µM
same,TGI,[17],0.338 µM
same,TGI,[18],0.0607 µM
same,TGI,[19],0.277 µM
same,TGI,[20],0.205 µM
COc1ccc2c(ccc3c(COC(=O)NC(C)C)c(COC(=O)NC(C)C)n(C)c32)c1,TGI,[1],20.8 µM
same,TGI,[2],55.2 µM
same,TGI,[3],7.13 µM
same,TGI,[4],> 100 µM
same,TGI,[5],17.4 µM
same,TGI,[6],26.5 µM
same,TGI,[7],26 µM
same,TGI,[8],> 100 µM
same,TGI,[9],25.4 µM
same,TGI,[10],19.6 µM
same,TGI,[11],22.1 µM
same,TGI,[12],> 100 µM
same,TGI,[13],22.9 µM
same,TGI,[14],26.8 µM
same,TGI,[15],34.2 µM
same,TGI,[16],24.3 µM
same,TGI,[18],> 100 µM
same,TGI,[19],32.8 µM
same,TGI,[20],28.5 µM
O=c1[nH]c(=O)n(C2CC(O)C(CO)O2)cc1OCC1CCCCC1 (stereo not drawn),TGI,[1],> 100 µM
same,TGI,[2],> 100 µM
same,TGI,[3],> 100 µM
same,TGI,[4],> 100 µM
same,TGI,[5],> 100 µM
same,TGI,[6],> 100 µM
same,TGI,[7],> 100 µM
same,TGI,[8],> 100 µM
same,TGI,[9],> 100 µM
same,TGI,[10],> 100 µM
same,TGI,[11],> 100 µM
same,TGI,[12],> 100 µM
same,TGI,[13],> 100 µM
same,TGI,[14],> 100 µM
same,TGI,[15],> 100 µM
same,TGI,[16],> 100 µM
same,TGI,[17],> 100 µM
same,TGI,[18],> 100 µM
same,TGI,[20],> 100 µM
